A word on the inhibition: it is the change of the read-out against control, counted positive when it falls.

Common to all, as to type: biochemical
Assay [1] deals with T1, Recombinant human LOXL1 (Homo sapiens, UniProt Q08397).
T1 construct: made in house
T1 sequence (Q08397 96-574): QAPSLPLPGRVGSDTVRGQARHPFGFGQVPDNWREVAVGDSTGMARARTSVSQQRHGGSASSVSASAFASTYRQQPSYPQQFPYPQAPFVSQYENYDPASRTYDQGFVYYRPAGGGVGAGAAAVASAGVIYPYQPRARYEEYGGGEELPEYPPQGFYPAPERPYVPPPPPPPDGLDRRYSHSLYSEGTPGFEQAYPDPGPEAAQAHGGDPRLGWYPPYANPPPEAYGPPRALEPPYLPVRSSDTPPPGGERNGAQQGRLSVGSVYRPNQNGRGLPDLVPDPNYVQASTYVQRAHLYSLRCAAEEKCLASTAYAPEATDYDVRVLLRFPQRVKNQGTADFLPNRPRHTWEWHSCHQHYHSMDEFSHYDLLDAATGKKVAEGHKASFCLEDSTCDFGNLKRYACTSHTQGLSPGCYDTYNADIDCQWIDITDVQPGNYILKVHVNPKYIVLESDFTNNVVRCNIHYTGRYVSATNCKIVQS
In words: Amplex Red oxidation assay, LOXL1 inhibition. As for the experimental part:
(§1) The measurement of the enzymatic activity of all lysyl oxidase family members was based on the detection of hydrogen peroxide with an Amplex-Red oxidation assay, as previously described; miniaturized in 384 well formats, with the appropriate combination of substrate and assay buffer for each individual enzyme. After a 30 min pre-incubation of the enzyme at 37 °C with the test compound (or with different incubation times for the time-dependency assay), one volume of reaction mixture containing 120 μM Amplex Red (AR) (Life Technologies), 1.5 U/mL horseradish peroxidase (HRP) (Sigma-Aldrich) and the specific substrate was added to each sample. The relative fluorescence units (RFU) were then measured every 2.5 min for 30 min at 37 °C, excitation 565 nm and emission 590, on a BMG Clariostar Microplate Reader. All the substrates were used at concentrations corresponding to their Km towards the corresponding enzyme, or with a range of different concentrations for the substrate competition experiments.
(§2) Lysyl oxidases assay buffer contained 1.2 M urea, 50 mM sodium borate buffer, pH 8.2 and 100 µM β-aminoproprionitrile (BAPN, Sigma-Aldrich) was used for low control.
Recombinant human LOXL1 was expressed and purified from cDNA (GeneArt) and 10 mM putrescine was used as substrate. Recombinant human and mouse LOXL2 (R&D Systems) were challenged with 5 mM putrescine (Sigma-Aldrich) as the substrate. Rat and dog recombinant LOXL2 were amplified and purified in house from HEK-293 clones kindly provided by Dr. Fernando Rodríguez Pascual, Madrid University, and used in the same conditions as for the human form. 2 mM putrescine was used as the substrate for recombinant human LOXL3 (R&D Systems) and LOXL4 (Dr. Fernando Rodríguez Pascual, university of Madrid, Spain) assays.

The target in assay [2] is T2, Rat Fibroblast LOX (Rattus norvegicus, UniProt P16636).
T2 construct: Fibroblast LOX; endogenous in cells; host or cells: rat fibroblasts
T2 sequence (P16636 163-411): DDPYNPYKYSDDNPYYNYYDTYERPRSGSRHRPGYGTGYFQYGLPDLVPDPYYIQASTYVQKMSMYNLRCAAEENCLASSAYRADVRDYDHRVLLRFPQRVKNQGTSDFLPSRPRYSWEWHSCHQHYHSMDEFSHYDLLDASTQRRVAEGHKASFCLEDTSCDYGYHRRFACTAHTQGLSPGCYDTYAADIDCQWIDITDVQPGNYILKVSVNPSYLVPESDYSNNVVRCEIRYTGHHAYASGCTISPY
In words: Amine oxidase inhibition profile, rat fibroblast LOX. As for the experimental part:
as §1, §2
Supplem entary Materi als:
Supplementary Table S1: Amine oxidase inhibition profile of PXS -4787, PXS-6302 and
Supplementary Table S2: Perm eability profile of PXS -6302.

Assay [3] concerns the target T3, Rat Recombinant LOXL2 (Rattus norvegicus, UniProt B5DF27).
T3 construct: made in house; host or cells: HEK-293 clones (provided by Dr. Fernando Rodríguez Pascual)
T3 sequence (B5DF27 26-776): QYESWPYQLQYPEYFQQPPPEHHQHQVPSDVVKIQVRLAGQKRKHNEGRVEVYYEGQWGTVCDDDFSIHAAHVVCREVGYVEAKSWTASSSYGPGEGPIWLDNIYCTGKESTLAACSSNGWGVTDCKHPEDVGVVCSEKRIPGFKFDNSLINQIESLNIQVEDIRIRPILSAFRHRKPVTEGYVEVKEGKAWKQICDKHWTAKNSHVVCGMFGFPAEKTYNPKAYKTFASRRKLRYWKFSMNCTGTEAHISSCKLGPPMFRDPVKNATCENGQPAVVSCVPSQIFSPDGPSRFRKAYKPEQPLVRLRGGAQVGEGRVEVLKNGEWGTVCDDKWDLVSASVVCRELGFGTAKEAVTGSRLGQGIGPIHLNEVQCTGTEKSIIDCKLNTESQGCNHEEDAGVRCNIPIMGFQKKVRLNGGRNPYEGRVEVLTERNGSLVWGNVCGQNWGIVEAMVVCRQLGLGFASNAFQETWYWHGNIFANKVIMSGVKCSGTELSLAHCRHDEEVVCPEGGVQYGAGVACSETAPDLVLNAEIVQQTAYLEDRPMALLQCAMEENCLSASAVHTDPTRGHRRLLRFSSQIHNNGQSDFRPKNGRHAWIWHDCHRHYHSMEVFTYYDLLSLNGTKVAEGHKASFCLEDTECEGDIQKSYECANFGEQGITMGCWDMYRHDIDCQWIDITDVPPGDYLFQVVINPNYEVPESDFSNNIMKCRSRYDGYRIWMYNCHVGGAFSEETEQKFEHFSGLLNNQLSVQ
In words: Amine oxidase inhibition profile, rat LOXL2.

The mark [4] stands for this setting: 30 min pre-incubation, read-out: rh LOXL1 IC50.
Where [5] appears, read: read-out: Human Recombinant LOXL1 pIC50±SD (converted).

“And” between values parts separate entries of the source, which are not always exact repeats. Equal entries are not always repeated. Where two headings read alike, the source gives them in different places.

`NC/C=C(\F)CS(=O)(=O)c1ccccc1` [PXS-4787]: the IC50 is 3 µM and 3.23 µM in assay [1] (setting [4]); 3.16 µM in assay [1] (setting [5]); 4.57 µM in assay [2]; 0.59 µM in assay [3]. The inhibition at 30 µM in assay [1] (log conc -4.5229, read-out: Fig 2A inhibition (mean)) is 97.5%. Further, the inhibition at 10 µM in assay [1] (log conc -5, read-out: Fig 2A inhibition (mean)) stood at 84.7%. The inhibition at 3.333 µM in assay [1] (log conc -5.4771, read-out: Fig 2A inhibition (mean)) is 56.4%. In addition, the inhibition at 1.111 µM in assay [1] (log conc -5.9542, read-out: Fig 2A inhibition (mean)) was 26.9%. Further, the inhibition at 0.3704 µM in assay [1] (log conc -6.4313, read-out: Fig 2A inhibition (mean)) is 13.6%. The inhibition at 0.1235 µM in assay [1] (log conc -6.9083, read-out: Fig 2A inhibition (mean)) came out at 6.04%. Moreover, the inhibition at 0.0412 µM in assay [1] (log conc -7.3851, read-out: Fig 2A inhibition (mean)) was found to be 2.88%. Further, in assay [1] (log conc -7.8633, read-out: Fig 2A inhibition (mean)), the inhibition at 0.0137 µM turned out to be 3.87%. Also, the inhibition at 0.0046 µM in assay [1] (log conc -8.3372, read-out: Fig 2A inhibition (mean)) stood at 0.808%. Moreover, in assay [1] (log conc -8.8239, read-out: Fig 2A inhibition (mean)), the inhibition at […] was -1.89%. Further, the inhibition at 0.0005 µM in assay [1] (log conc -9.301, read-out: Fig 2A inhibition (mean)) came to 1.05%.
With `N#CCCN` [BAPN, β-aminoproprionitrile, reference compound], in assay [1], the “Human Recombinant LOXL1 pIC50±SD” value turned out to be 5.6 ± 0.1. The IC50 in assay [1] (setting [4]) is 2.46 µM. Also, in assay [2], the IC50 was 2.12 µM and the “Rat Fibroblast LOX pIC50±SD” value came out at 5.7 ± 0.1. Besides, in assay [3], the IC50 worked out at 0.65 µM and the “Rat Recombinant LOXL2 pIC50±SD” value is 6.2 ± 0.2.
`NC/C=C(\F)C(F)(F)S(=O)(=O)c1ccccc1` [PXS-6302]: the IC50 in assay [1] (setting [4]) is 3.42 µM; in assay [1] (setting [5]) it was 3.16 µM; in assay [2] it was 8.57 µM; in assay [3] it was 0.43 µM.
